Measurements reported in US11136329B2, “JAK inhibitors” (Vimalan Biosciences, Inc., priority 2019, dated 2021).

Columns and labels:
Assay type in all cases: biochemical
JAK1 = JAK1 (Homo sapiens (Human), UniProt P23458); test: JAK/TYK2 assay (Kinase Glo luminescence), JAK1; conditions: 7.5 nM enzyme, 2 uM ATP, 30 uM IRS-1, 1 hr
In short: (§1)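 Compound in DMSO was combined with 2× enzyme, then 2× substrate mixture started the reaction, which proceeded for 1-2 hours at 25° C. Kinase Glo reagent was added to stop it and produce luminescence. Wells lacking compound served as the positive control.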

JAK3 = JAK3 (Homo sapiens (Human), UniProt P52333); test: JAK/TYK2 assay (Kinase Glo luminescence), JAK3; conditions: 1.5 nM enzyme, 2 uM ATP, 4 uM pEY, 1 hr
In short: as §1

JAK2 = JAK2 (Homo sapiens (Human), UniProt O60674); test: JAK/TYK2 assay (Kinase Glo luminescence), JAK2; conditions: 0.8 nM enzyme, 2 uM ATP, 4 uM pEY, 1 hr
In short: as §1

TYK2 = TYK2 (Homo sapiens (Human), UniProt P29597); test: JAK/TYK2 assay (Kinase Glo luminescence), TYK2; conditions: 9 nM enzyme, 2 uM ATP, 30 uM IRS-1, 1 hr
In short: as §1

Measured: IC50

JAK3, sequence (P52333 whole entry, species assumed): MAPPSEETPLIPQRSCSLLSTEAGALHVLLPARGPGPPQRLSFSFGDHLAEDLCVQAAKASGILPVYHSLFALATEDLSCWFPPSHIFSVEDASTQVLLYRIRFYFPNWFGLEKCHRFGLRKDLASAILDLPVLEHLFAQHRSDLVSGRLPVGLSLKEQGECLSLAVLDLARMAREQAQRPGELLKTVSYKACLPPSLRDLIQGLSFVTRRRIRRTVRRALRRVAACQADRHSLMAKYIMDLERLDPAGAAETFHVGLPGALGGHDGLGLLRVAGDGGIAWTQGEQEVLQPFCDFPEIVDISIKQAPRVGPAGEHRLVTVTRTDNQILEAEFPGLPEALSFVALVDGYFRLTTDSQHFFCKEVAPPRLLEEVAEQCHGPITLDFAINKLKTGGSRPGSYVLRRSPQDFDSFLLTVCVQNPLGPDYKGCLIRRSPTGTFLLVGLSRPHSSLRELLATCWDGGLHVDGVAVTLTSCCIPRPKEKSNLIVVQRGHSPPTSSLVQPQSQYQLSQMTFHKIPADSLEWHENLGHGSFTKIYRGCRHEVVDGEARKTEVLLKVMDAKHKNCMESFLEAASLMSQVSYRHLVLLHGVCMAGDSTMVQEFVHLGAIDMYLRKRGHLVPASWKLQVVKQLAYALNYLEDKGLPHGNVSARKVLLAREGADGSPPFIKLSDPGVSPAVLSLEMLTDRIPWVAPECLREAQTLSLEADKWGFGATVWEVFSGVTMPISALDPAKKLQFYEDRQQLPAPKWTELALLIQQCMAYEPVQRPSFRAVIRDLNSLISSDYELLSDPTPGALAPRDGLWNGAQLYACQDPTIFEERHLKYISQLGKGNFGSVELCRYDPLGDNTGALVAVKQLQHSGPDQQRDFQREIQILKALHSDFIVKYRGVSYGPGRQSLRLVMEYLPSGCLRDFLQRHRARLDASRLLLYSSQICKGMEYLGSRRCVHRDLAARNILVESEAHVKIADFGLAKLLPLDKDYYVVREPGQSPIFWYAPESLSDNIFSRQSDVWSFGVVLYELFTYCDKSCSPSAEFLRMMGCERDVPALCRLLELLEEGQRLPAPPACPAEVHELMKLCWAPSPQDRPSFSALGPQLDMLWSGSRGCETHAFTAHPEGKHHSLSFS
TYK2, sequence (P29597 whole entry, species assumed): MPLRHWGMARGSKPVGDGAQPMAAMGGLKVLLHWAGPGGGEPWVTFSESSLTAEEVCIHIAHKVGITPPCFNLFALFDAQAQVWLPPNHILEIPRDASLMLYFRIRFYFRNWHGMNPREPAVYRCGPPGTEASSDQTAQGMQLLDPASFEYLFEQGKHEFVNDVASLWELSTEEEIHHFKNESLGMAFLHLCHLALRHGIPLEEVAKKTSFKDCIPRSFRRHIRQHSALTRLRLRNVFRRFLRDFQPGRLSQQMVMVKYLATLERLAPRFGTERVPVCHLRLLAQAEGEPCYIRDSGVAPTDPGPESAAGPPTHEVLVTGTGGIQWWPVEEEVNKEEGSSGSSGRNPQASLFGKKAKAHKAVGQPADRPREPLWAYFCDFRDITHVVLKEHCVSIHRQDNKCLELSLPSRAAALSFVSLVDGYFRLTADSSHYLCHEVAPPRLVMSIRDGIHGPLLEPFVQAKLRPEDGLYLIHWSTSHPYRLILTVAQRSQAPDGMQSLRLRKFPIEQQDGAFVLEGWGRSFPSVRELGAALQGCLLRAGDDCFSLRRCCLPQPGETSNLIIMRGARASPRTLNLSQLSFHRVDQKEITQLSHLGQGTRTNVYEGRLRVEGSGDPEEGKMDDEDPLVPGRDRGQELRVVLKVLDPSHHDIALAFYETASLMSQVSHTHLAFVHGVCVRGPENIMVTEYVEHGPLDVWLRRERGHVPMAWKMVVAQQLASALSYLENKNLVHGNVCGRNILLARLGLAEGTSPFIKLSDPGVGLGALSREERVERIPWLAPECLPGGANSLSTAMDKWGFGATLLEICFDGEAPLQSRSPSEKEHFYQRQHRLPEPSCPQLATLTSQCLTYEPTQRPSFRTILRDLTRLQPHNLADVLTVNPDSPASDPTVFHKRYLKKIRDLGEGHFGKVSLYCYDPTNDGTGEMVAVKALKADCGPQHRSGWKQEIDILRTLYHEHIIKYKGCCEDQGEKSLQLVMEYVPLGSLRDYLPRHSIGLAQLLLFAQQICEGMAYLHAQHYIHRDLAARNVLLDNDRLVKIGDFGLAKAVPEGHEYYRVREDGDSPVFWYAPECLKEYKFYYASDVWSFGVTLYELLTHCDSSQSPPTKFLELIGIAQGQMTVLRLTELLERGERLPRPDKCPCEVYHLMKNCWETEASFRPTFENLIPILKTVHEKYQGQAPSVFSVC
JAK1, sequence (P23458 whole entry, species assumed): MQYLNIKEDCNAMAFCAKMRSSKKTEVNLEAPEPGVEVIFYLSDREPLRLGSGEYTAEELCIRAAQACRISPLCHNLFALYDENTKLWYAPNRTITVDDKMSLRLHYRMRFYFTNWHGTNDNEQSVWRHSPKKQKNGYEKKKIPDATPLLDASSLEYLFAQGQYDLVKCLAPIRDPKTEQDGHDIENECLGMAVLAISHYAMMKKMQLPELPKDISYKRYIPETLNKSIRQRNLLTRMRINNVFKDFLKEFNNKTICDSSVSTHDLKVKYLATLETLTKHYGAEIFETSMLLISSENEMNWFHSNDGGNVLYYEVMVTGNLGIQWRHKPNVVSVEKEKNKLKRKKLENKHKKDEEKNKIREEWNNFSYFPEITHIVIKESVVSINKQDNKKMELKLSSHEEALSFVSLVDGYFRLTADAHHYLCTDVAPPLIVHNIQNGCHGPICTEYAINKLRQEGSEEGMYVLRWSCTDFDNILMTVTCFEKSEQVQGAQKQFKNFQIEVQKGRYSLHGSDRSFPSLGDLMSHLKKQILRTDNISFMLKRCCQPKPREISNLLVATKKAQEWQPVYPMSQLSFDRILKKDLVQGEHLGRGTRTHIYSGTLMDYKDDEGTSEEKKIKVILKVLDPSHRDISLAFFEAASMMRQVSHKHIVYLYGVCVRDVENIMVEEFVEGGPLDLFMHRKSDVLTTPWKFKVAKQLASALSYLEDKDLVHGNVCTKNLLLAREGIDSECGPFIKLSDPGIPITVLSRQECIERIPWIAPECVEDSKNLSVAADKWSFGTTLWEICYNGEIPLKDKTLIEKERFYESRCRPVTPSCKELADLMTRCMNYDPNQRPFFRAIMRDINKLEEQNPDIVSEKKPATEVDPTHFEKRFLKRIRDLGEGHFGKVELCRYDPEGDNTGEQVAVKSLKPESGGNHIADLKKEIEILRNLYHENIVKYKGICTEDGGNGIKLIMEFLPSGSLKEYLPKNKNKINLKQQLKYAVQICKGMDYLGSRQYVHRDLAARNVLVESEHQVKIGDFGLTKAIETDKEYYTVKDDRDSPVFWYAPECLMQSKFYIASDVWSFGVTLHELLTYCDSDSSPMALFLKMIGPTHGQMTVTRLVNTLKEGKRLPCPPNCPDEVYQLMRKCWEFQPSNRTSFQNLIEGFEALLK
JAK2, sequence (O60674 whole entry, species assumed): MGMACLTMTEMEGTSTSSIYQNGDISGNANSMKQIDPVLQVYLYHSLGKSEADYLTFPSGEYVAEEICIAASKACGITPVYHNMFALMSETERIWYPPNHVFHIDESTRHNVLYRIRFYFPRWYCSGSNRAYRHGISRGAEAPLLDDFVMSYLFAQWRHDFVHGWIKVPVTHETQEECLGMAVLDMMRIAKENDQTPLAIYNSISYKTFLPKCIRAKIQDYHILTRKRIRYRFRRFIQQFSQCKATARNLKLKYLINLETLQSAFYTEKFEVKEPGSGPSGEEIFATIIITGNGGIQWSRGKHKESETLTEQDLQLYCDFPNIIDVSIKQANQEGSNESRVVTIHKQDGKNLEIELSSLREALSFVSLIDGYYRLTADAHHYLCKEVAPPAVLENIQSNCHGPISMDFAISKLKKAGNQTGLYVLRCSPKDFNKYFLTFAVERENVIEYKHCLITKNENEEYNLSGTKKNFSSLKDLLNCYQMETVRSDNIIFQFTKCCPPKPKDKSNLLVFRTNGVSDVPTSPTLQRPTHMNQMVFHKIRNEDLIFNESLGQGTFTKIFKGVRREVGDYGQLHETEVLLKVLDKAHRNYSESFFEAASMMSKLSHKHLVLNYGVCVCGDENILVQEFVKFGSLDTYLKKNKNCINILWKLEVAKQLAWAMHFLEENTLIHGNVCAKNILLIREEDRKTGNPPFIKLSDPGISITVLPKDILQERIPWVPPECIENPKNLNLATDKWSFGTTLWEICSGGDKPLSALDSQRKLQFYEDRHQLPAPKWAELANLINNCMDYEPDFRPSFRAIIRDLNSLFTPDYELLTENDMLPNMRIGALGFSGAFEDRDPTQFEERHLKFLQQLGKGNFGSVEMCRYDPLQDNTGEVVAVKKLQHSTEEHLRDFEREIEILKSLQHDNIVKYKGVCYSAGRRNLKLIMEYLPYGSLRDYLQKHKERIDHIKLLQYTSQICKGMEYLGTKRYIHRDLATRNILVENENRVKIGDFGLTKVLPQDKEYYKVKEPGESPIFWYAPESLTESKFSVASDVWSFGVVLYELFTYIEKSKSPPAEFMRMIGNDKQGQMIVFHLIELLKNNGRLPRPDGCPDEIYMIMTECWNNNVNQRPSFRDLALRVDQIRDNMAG

CC(C)OC(=O)Cn1cc(Nc2ncc3ccn(C[C@@H](CCO)C(C)C)c3n2)cn1 [Compound 97, isopropyl (S)-2-(4-((7-(4-hydroxy-2-isopropylbutyl)-7H-pyrrolo[2,3-d]pyrimidin-2-yl)amino)-1H-pyrazol-1-yl)acetate]
< 100 nM: all assays above

CC(C)OC(=O)Cn1cc(Nc2ncc3ccn(C[C@@H](CCCl)C(C)C)c3n2)cn1 [Compound 98, isopropyl (S)-2-(4-((7-(4-chloro-2-isopropylbutyl)-7H-pyrrolo[2,3-d]pyrimidin-2-yl)amino)-1H-pyrazol-1-yl)acetate]
< 100 nM: all assays above

CC(C)OC(=O)Cn1cc(Nc2ncc3ccn(C[C@@H](CCF)C(C)C)c3n2)cn1 [Compound 99, isopropyl (S)-2-(4-((7-(4-fluoro-2-isopropylbutyl)-7H-pyrrolo[2,3-d]pyrimidin-2-yl)amino)-1H-pyrazol-1-yl)acetate]
< 100 nM: all assays above

CCC[C@H](Cn1ccc2cnc(Nc3cnn(CC(=O)OC(C)C)c3)nc21)C(C)C [Compound 100, isopropyl (S)-2-(4-((7-(2-isopropylpentyl)-7H-pyrrolo[2,3-d]pyrimidin-2-yl)amino)-1H-pyrazol-1-yl)acetate]
< 100 nM: all assays above

CCC(Cn1ccc2cnc(Nc3cnn(CC(=O)OC(C)C)c3)nc21)CC(F)(F)F (centres unmarked) [Compound 101, isopropyl 2-(4-((7-(2-ethyl-4,4,4-trifluorobutyl)-7H-pyrrolo[2,3-d]pyrimidin-2-yl)amino)-1H-pyrazol-1-yl)acetate]
< 100 nM: all assays above

C=CC[C@H](Cn1ccc2cnc(Nc3cnn(CC(=O)OC(C)C)c3)nc21)C(C)C [Compound 102, isopropyl (S)-2-(4-((7-(2-isopropylpent-4-en-1-yl)-7H-pyrrolo[2,3-d]pyrimidin-2-yl)amino)-1H-pyrazol-1-yl)acetate]
< 100 nM: all assays above

CCC(CC)Cn1ccc2cnc(Nc3cnn(CC(=O)OCCN(C)C)c3)nc21 [Compound 103, 2-(dimethylamino)ethyl 2-(4-((7-(2-ethylbutyl)-7H-pyrrolo[2,3-d]pyrimidin-2-yl)amino)-1H-pyrazol-1-yl)acetate]
< 100 nM: all assays above

CC[C@H](Cn1ccc2cnc(Nc3cnn(CC(=O)O)c3)nc21)C(C)C [Compound 104, (S)-2-(4-((7-(2-ethyl-3-methylbutyl)-7H-pyrroIo[2,3-d]pyrimidin-2-yl)amino)-1H-pyrazol-1-yl)acetic acid]
< 100 nM: all assays above

CCC(Cn1ccc2cnc(Nc3cnn(CC(=O)O[C@@H](C)CO)c3)nc21)C(C)C (stereo partly drawn) [Compound 105, (S)-1-hydroxypropan-2-yl 2-(4-((7-(2-ethyl-3-methylbutyl)-7H-pyrrolo[2,3-d]pyrimidin-2-yl)amino)-1H-pyrazol-1-yl)acetate]
< 100 nM: all assays above

CCC(Cn1ccc2cnc(Nc3cnn(CC(=O)O[C@H](C)CO)c3)nc21)C(C)C (stereo partly drawn) [Compound 106, (R)-1-hydroxypropan-2-yl 2-(4-((7-(2-ethyl-3-methylbutyl)-7H-pyrrolo[2,3-d]pyrimidin-2-yl)amino)-1H-pyrazol-1-yl)acetate]
< 100 nM: all assays above

CCC(C)OC(=O)Cn1cc(Nc2ncc3ccn(CC(CC)C(C)C)c3n2)cn1 (centres unmarked) [Compound 107, sec-butyl 2-(4-((7-(2-ethyl-3-methylbutyl)-7H-pyrrolo[2,3-d]pyrimidin-2-yl)amino)-1H-pyrazol-1-yl)acetate]
< 100 nM: all assays above

CCC(Cn1ccc2cnc(Nc3cnn(CC(=O)OCC(C)C)c3)nc21)C(C)C (centres unmarked) [Compound 108, isobutyl 2-(4-((7-(2-ethyl-3-methylbutyl)-7H-pyrrolo[2,3-d]pyrimidin-2-yl)amino)-1H-pyrazol-1-yl)acetate]
< 100 nM: all assays above

CCC(Cn1ccc2cnc(Nc3cnn(CC(=O)OC(C)C(C)O)c3)nc21)C(C)C (centres unmarked) [Compound 109, 3-hydroxybutan-2-yl 2-(4-((7-(2-ethyl-3-methylbutyl)-7H-pyrrolo[2,3-d]pyrimidin-2-yl)amino)-1H-pyrazol-1-yl)acetate]
< 100 nM: all assays above

CCC(Cn1ccc2cnc(Nc3cnn(CC(=O)OC[C@@H](C)O)c3)nc21)C(C)C (stereo partly drawn) [Compound 110, (R)-2-hydroxypropyl 2-(4-((7-(2-ethyl-3-methylbutyl)-7H-pyrrolo[2,3-d]pyrimidin-2-yl)amino)-1H-pyrazol-1-yl)acetate]
< 100 nM: all assays above

CCC(Cn1ccc2cnc(Nc3cnn(CC(=O)OCC(O)CO)c3)nc21)C(C)C (centres unmarked) [Compound 111, 2,3-dihydroxypropyl 2-(4-((7-(2-ethyl-3-methylbutyl)-7H-pyrrolo[2,3-d]pyrimidin-2-yl)amino)-1H-pyrazol-1-yl)acetate]
< 100 nM: all assays above

CCC(Cn1ccc2cnc(Nc3cnn(CC(=O)OC[C@H](C)O)c3)nc21)C(C)C (stereo partly drawn) [Compound 112, (S)-2-hydroxypropyl 2-(4-((7-(2-ethyl-3-methylbutyl)-7H-pyrrolo[2,3-d]pyrimidin-2-yl)amino)-1H-pyrazol-1-yl)acetate]
< 100 nM: all assays above

CCC(CC)Cn1ccc2cnc(Nc3cnn(CC(=O)OC(C)C(C)O)c3)nc21 (centres unmarked) [Compound 113, 3-hydroxybutan-2-yl 2-(4-((7-(2-ethylbutyl)-7H-pyrrolo[2,3-d]pyrimidin-2-yl)amino)-1H-pyrazol-1-yl)acetate]
< 100 nM: all assays above
